The supplement of paper PMC10307832

Tests used:
Assay in all cases: relative viability (nuclei count vs DMSO), 5 days (fraction); higher = more cells survive
[1] = compound: CN(C)CC1=CC(=CC=C1)N=C(C2=CC=CC=C2)C3=C(NC4=C3C=CC(=C4)C(=O)N(C)C)O + N=C(N)NC(=N)NCCc1ccccc1 [Phenformin] (partner 250 µM)
How it was run: (§1)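 After 5 days of treatment, lung cancer cells in 1536-well plates were fixed and stained in a single step (final 0.05% Triton X-100, 1% formaldehyde, 1 ug/ml Hoechst) and their nuclei counted on 4× images. Treatment had been applied by pin tool the day after seeding as one drug alone or as a fixed anchor-drug dose with five library-drug doses (not always all listed) in √10 steps. Relative viability is the nuclei count of treated wells divided by that of vehicle wells, and values are medians of duplicate plates.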

[2] = compound: CN(C)CC1=CC(=CC=C1)N=C(C2=CC=CC=C2)C3=C(NC4=C3C=CC(=C4)C(=O)N(C)C)O + CC1(C)CCC(c2ccc(Cl)cc2)=C(CN2CCN(c3ccc(C(=O)NS(=O)(=O)c4ccc(N[C@H](CCN5CCOCC5)CSc5ccccc5)c(S(=O)(=O)C(F)(F)F)c4)cc3)CC2)C1 [Navitoclax] (partner 0.5 µM)
How it was run: as §1

[3] = compound: CN(C)CC1=CC(=CC=C1)N=C(C2=CC=CC=C2)C3=C(NC4=C3C=CC(=C4)C(=O)N(C)C)O + C[C@@H](Oc1cc(-c2cnn(C3CCNCC3)c2)cnc1N)c1c(Cl)ccc(F)c1Cl [Crizotinib] (partner 1 µM)
How it was run: as §1

[4] = compound: CN(C)CC1=CC(=CC=C1)N=C(C2=CC=CC=C2)C3=C(NC4=C3C=CC(=C4)C(=O)N(C)C)O + Nc1ncn([C@H]2C[C@H](O)[C@@H](CO)O2)c(=O)n1 [Decitabine] (partner 2 µM)
How it was run: as §1

Cell Line | relative viability ([1]; first compound 0.08 µM) | relative viability ([1]; first compound 0.253 µM) | relative viability ([1]; first compound 0.8 µM) | relative viability ([1]; first compound 2.53 µM) | relative viability ([1]; first compound 8 µM) | relative viability ([2]; first compound 0.08 µM) | relative viability ([2]; first compound 0.253 µM) | relative viability ([2]; first compound 0.8 µM) | relative viability ([2]; first compound 2.53 µM) | relative viability ([2]; first compound 8 µM) | relative viability ([3]; first compound 0.08 µM) | relative viability ([3]; first compound 0.253 µM) | relative viability ([3]; first compound 0.8 µM) | relative viability ([3]; first compound 2.53 µM) | relative viability ([3]; first compound 8 µM) | relative viability ([4]; first compound 0.08 µM) | relative viability ([4]; first compound 0.253 µM) | relative viability ([4]; first compound 0.8 µM) | relative viability ([4]; first compound 2.53 µM) | relative viability ([4]; first compound 8 µM)
PC-3 [JPC-3] | 0.446 | 0.485 | 0.428 | 0.46 | 0.496 | 0.787 | 0.703 | 0.643 | 0.84 | 0.843 | 0.968 | 0.983 | 0.824 | 0.985 | 1.07 | 0.761 | 0.763 | 0.804 | 0.837 | 0.842
PC-14 | 0.572 | 0.545 | 0.617 | 0.602 | 0.734 | 1.08 | 1.03 | 0.965 | 1.03 | 1.07 | 0.948 | 0.885 | 0.842 | 0.786 | 1.01 | 0.254 | 0.214 | 0.213 | 0.236 | 0.25
RERF-LC-KJ | 0.434 | 0.424 | 0.412 | 0.409 | 0.398 | 1.06 | 0.645 | 0.833 | 1.03 | 0.866 | 0.855 | 0.771 | 0.707 | 0.887 | 0.754 | 0.746 | 0.644 | 0.801 | 0.671 | 0.713
SK-LU-1 | 0.41 | 0.573 | 0.597 | 0.473 | 0.39 | 1.05 | 0.898 | 0.778 | 0.651 | 0.791 | 1 | 1.08 | 0.982 | 0.825 | 0.613 | 0.624 | 0.653 | 0.646 | 0.578 | 0.677
SK-MES-1 | 0.646 | 0.597 | 0.645 | 0.612 | 0.522 | 1.25 | 1.26 | 1.09 | 1.15 | 1.1 | 0.946 | 1.03 | 0.956 | 0.883 | 0.939 | 0.392 | 0.351 | 0.4 | 0.374 | 0.39
SW 1573 | 0.322 | 0.31 | 0.378 | 0.294 | 0.31 | 1.01 | 0.822 | 0.844 | 0.906 | 1.01 | 0.842 | 0.854 | 0.672 | 0.866 | 0.794 | 0.496 | 0.46 | 0.659 | 0.562 | 0.573
UMC-11 | 0.332 | 0.311 | 0.309 | 0.301 | 0.253 | 0.357 | 0.269 | 0.264 | 0.328 | 0.32 | 0.62 | 0.711 | 0.662 | 0.468 | 0.588 | 0.724 | 0.633 | 0.693 | 0.546 | 0.611
